Legend:
Assay in all cases: Post emergence treatment, greenhouse pot test, herbicidal activity
Assay type in all cases: in vivo
Conditions in all cases: scale 0 to 100
KCHSC (Kochia scoparia) = system: KCHSC (Kochia scoparia)
Experimental: (§1) The analysis of synergism or antagonism between the mixtures or compositions was determined using Colby's equation.
(§2) The culture containers used were plastic flowerpots containing loamy sand with approximately 3.0% of humus as the substrate. The seeds of the test plants were sown separately for each species and/or resistant biotype. […] The containers were irrigated gently to promote germination and growth and subsequently covered with transparent plastic hoods until the plants had rooted. This cover caused uniform germination of the test plants, unless this had been impaired by the active ingredients. […] For this purpose, the test plants were either sown directly and grown in the same containers, or they were first grown separately as seedlings and transplanted into the test containers a few days prior to treatment. Depending on the species, the plants were kept at 10-25° C. or 20-35° C., respectively. The test period extended to 20 days after treatment. During this time, the plants were tended, and their response to the individual treatments was evaluated. The evaluation was carried out by using a scale from 0 to 100. 100 means no emergence of the plants or complete destruction of at least the above-ground parts, and 0 means no damage, or normal course of growth. Data shown are the mean of two replications.

[1] = system: COMBE (Commelina benghalensis)
Experimental: as §1, §2

[2] = system: ECHCG (Echinochloa crus-galli)
Experimental: as §1, §2

[3] = system: CHEAL (Chenopodium album)
Experimental: as §1, §2

AVEFA (Avena fatua) = system: AVEFA (Avena fatua)
Experimental: as §1, §2

[4] = system: ABUTH (Abutilon theophrasti)
Experimental: as §1, §2

SETVI (Setaria viridis) = system: SETVI (Setaria viridis)
Experimental: as §1, §2

[5] = 2,4-D as dimethylammonium salt 70 g ai/ha
[6] = 2,4-D as dimethylammonium salt 140 g ai/ha

COC[C@H](C)N(C(=O)CCl)c1c(C)csc1C [Dimethenamid-P]
Herbicidal activity against KCHSC, Found (KCHSC (Kochia scoparia); Dimethenamid-P 500 g ai/ha): 0
Herbicidal activity against KCHSC, Found (KCHSC (Kochia scoparia); Dimethenamid-P 1000 g ai/ha): 70

bicyclopyrone
Herbicidal activity against COMBE, Found ([1]; Bicyclopyrone 1 g ai/ha): 0
Herbicidal activity against COMBE, Found ([1]; Bicyclopyrone 2 g ai/ha): 10
Herbicidal activity against ECHCG, Found ([2]; Bicyclopyrone 1 g ai/ha): 0
Herbicidal activity against ECHCG, Found ([2]; Bicyclopyrone 2 g ai/ha): 0

CCc1cccc(C)c1N(C(=O)CCl)[C@@H](C)COC [S-Metolachlor, S-metolachlor]
Herbicidal activity against CHEAL, Found ([3]; S-Metolachlor 500 g ai/ha): 20
Herbicidal activity against CHEAL, Found ([3]; S-Metolachlor 1000 g ai/ha): 75

CCOCCN(C(=O)CCl)C(=C(C)C)c1ccccc1 [Pethoxamid, pethoxamid]
Herbicidal activity against AVEFA, Found (AVEFA (Avena fatua); Pethoxamid 50 g ai/ha): 0
Herbicidal activity against AVEFA, Found (AVEFA (Avena fatua); Pethoxamid 100 g ai/ha): 0
Herbicidal activity against ABUTH, Found ([4]; Pethoxamid 50 g ai/ha): 0
Herbicidal activity against ABUTH, Found ([4]; Pethoxamid 100 g ai/ha): 0

CNC.O=C(O)COc1ccc(Cl)cc1Cl [2,4-D as dimethylammonium salt, 2,4-D dimethylammonium salt]
Herbicidal activity against AVEFA, Found (AVEFA (Avena fatua); [5]): 0
Herbicidal activity against AVEFA, Found (AVEFA (Avena fatua); [6]): 0
Herbicidal activity against SETVI, Found (SETVI (Setaria viridis); [5]): 0
Herbicidal activity against SETVI, Found (SETVI (Setaria viridis); [6]): 0

Dicamba dimethylammonium salt [Dicamba as dimethylammonium salt]
Herbicidal activity against SETVI, Found (SETVI (Setaria viridis); Dicamba as dimethylammonium salt 35 g ai/ha): 0
Herbicidal activity against SETVI, Found (SETVI (Setaria viridis); Dicamba as dimethylammonium salt 70 g ai/ha): 0
Herbicidal activity against SETVI, Found (SETVI (Setaria viridis); Dicamba as dimethylammonium salt 140 g ai/ha): 30

C#CCN1C(=O)C(F)(F)Oc2cc(F)c(-n3c(=O)n(C)c(=S)n(C)c3=O)cc21 [Trifludimoxazin, trifludimoxazin]
Herbicidal activity against ECHCG, Found ([2]; Trifludimoxazin 0.25 g ai/ha): 10

CP(=O)(O)CC[C@H](N)C(=O)O [L-Glufosinate, (2S)-2-amino-4-[hydroxy(methyl)phosphinoyl]butyric acid]
Herbicidal activity against AVEFA, Found (AVEFA (Avena fatua); L-Glufosinate 75 g ai/ha): 0
Herbicidal activity against AVEFA, Found (AVEFA (Avena fatua); L-Glufosinate 150 g ai/ha): 0
Herbicidal activity against COMBE, Found ([1]; L-Glufosinate 100 g ai/ha): 0
Herbicidal activity against ABUTH, Found ([4]; L-Glufosinate 75 g ai/ha): 0
Herbicidal activity against ABUTH, Found ([4]; L-Glufosinate 150 g ai/ha): 55
Herbicidal activity against ABUTH, Found ([4]; L-Glufosinate 200 g ai/ha): 65

Source: patent publication US12144351B2, “Herbicidal mixtures comprising L-glufosinate and their use in corn cultures” (priority 2017, dated 2024)
